Measured values as given in patent publication US10195179B2, “Spiro-lactam NMDA receptor modulators and uses thereof” (Aptinyx Inc., priority 2016, dated 2019).

Legend:
[1] = Plasma stability, human; type: in vitro ADME
Procedure: (§1) Plasma stability for Compound AA and Compound BB was investigated. The following table indicates the percent of Compound AA and Compound BB remaining after 60 minutes.

[2] = Plasma stability, rat; type: in vitro ADME
Procedure: as §1

[3] = Plasma protein binding assay, human; type: in vitro ADME; conditions: read-out: Plasma Protein binding (% Bound) Plasma human (converted)
Procedure: Bound drug concentration in the brain was also investigated, and plasma protein binding assays were conducted. The following table (% bound) indicates results for Compound AA and Compound BB.

[4] = biological target: NR2C (Homo sapiens, UniProt Q14957); assay: Potentiation of [3H]MK-801 binding, wild-type NMDAR2C; parameters: species or system rat
NR2C, sequence (Q14957 20-1233, species assumed, other chains not shown): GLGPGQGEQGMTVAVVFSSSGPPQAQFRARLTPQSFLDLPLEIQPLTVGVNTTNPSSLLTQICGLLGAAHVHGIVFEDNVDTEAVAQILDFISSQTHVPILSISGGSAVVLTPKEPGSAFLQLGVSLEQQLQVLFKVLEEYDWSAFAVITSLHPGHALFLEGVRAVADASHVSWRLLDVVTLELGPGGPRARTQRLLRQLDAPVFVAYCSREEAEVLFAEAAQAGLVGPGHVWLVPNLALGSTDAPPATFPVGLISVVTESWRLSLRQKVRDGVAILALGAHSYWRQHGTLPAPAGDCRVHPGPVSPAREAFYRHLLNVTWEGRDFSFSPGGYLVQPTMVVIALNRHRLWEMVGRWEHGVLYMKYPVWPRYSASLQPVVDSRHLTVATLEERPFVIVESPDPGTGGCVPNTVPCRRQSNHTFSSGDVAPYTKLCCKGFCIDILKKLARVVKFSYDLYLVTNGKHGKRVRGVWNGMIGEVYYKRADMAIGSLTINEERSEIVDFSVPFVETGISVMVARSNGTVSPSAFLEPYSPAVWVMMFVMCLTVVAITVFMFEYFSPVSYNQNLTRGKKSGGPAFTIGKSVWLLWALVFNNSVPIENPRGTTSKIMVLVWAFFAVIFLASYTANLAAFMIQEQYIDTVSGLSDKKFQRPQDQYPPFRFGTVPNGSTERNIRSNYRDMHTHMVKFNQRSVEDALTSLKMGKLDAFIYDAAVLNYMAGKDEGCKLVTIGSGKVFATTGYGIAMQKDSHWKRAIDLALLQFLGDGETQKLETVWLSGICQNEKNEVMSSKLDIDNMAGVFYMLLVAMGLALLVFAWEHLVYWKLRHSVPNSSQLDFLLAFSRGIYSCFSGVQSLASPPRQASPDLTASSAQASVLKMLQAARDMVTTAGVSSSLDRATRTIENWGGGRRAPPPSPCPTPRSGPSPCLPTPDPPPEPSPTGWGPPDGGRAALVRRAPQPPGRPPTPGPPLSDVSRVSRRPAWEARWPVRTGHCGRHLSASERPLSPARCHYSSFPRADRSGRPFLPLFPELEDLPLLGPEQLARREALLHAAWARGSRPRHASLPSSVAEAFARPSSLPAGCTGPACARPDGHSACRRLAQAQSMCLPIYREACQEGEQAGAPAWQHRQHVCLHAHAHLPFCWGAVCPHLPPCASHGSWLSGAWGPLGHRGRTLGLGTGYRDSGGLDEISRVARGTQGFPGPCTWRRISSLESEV
Procedure: Assays were conducted as described by Moskal et al., “GLYX-13: a monoclonal antibody-derived peptide that acts as an N-methyl-D-aspartate receptor modulator,” Neuropharmacology, 49, 1077-87, 2005. The potentiation of [^3H]MK-801 binding (5 nM; 22.5 Ci/mmol) to well washed rat cortical membranes (200 μg) was measured under non-equilibrium conditions (15 min @ 25° C.) in the presence of increasing concentrations of Compound AA or Compound BB.
FIG. 2A depicts the potentiation of [^3H]MK-801 binding for wild-type NMDAR2 subtypes in the presence of Compound AA. FIG. 2B depicts the potentiation of [^3H]MK-801 binding for wild-type NMDAR2 subtypes in the presence of Compound BB. The following table depicts the results (P means potency and A means activity): […]

[5] = test system: rat; assay: Positive emotional learning (PEL) test, 50-kHz USVs; type: in vivo; conditions: administered one hour prior to PEL testing
Procedure: Experiments were conducted as described in Burgdorf et al., “The effect of selective breeding for differential rates of 50-kHz ultrasonic vocalizations on emotional behavior in rats,” Devel. Psychobiol., 51:34-46 (2009).
The PEL assay measures the acquisition of positive (hedonic) 50-kHz ultrasonic vocalizations (USVs) to a social stimulus, heterospecific rough and tumble play stimulation. Heterospecific rough-and-tumble play stimulation was administered by the experimenter's right hand. Animals received 3 min of heterospecific rough-and-tumble play that consisted of alternating 15 sec blocks of heterospecific play and 15 sec of no-stimulation. High frequency ultrasonic vocalizations (USVs) were recorded and analyzed by sonogram with Avasoft SASlab Pro (Germany) as previously described by Burgdorf et al., “Positive emotional learning is regulated in the medial prefrontal cortex by GluN2B-containing NMDA receptors,” Neuroscience, 192:515-523 (2011). Frequency modulated 50-kHz USVs that occurred during each of the no-stimulation periods were quantified to measure PEL. Animals were not habituated to play stimulation before testing. Positive emotional learning was measured during the conditioned stimulus (CS) trials preceding the tickle unconditioned stimulus (UCS) trials. […] Running speed for animals to self administer tickling at the end of the 3 min session was also measured.

[6] = test system: rat Schaffer collateral-evoked NMDA fEPSPs recorded in CA1 pyramidal neurons; assay: Long-term potentiation in hippocampal slices; type: cell-based; conditions: bath application 100 nm, 500 nm, 2 μM
Procedure: Assays were conducted as described in Zhang et al. (Zhang, X. L., Sullivan, J. A., Moskal., J. R., Stanton, P. K., 2008. A NMDA receptor glycine site partial agonist, GLYX-13, simultaneously enhances LTP and reduces LTD at Schaffer collateral-CA1 synapses in hippocampus. Neuropharmacology, 55, 1238-50). See also Burgdorf, J, Zhang X L, Nicholson K L, Balster R L, Leander J D, Stanton P K, Gross A L, Kroes R A, Moskal J R (2013), GLYX-13, a NMDA receptor glycine-site functional partial agonist, induces antidepressant-like effects without ketamine-like side effects, Neuropsychopharmacology: official publication of the American College of Neuropsychopharmacology 38:729-742. […] A bipolar tungsten ystimulating electrode (FHC Co.) was placed on Schaffer collateral-commissural fibers in CA3 stratum radiatum, and constant current stimulus intensity adjusted to evoke approximately half-maximal fEPSPs once each 30 s ([…]; 100 μs duration). fEPSP slope was measured before and after induction of LTP by linear interpolation from 20 to 80% of maximum negative deflection, and slopes confirmed to be stable to within ±10% for at least 15 min before commencing an experiment. […] The signals were recorded using a Multiclamp 700B amplifier and digitized with a Digidata 1322 (Axon Instruments, USA).

Plasma Stability (% remaining at 60 min) Human [1]: 81% | Plasma Stability (% remaining at 60 min) Rat [2]: 86% | fraction unbound [3]: 0.789 | NR2C A (%) (activity) ([4]; potentiation of [3H]MK-801 binding): 0% | NMDAR2C BINDING PROFILE % 1 mM Glycine ([4]; relative to 1 mM glycine): 0% | binding to NR2C (in words) ([4]; statement in description): substantially no binding | NMDAR2C BINDING PROFILE Conclusion ([4]; wild-type NMDAR2C): WT2C no
SMILES: C[C@@H](O)[C@@H](C(N)=O)N1C[C@@]2(CCCN2S(C)(=O)=O)C1=O [Compound BB, (2S,3R)-3-hydroxy-2-((S)-5-(methylsulfonyl)-1-oxo-2,5-diazaspiro[3,4]octan-2-yl)butanamide]
positive emotional learning as measured by rat USVs [5]: increases positive emotional learning | long-term potentiation after high frequency stimulation [6]: increased long-term potentiation
